From patent US10689414B2 (Agios Pharmaceuticals, Inc., priority 2013, dated 2020)

System: U87MG cells
Assay: Cellular assay, inhibition of 2-HG production in U87MG cells
Format: cell-based
Conditions: Homo sapiens, U-87 MG, 48 h
Experimental: Cells (HT1080 or U87MG) are grown in T125 flasks in DMEM containing 10% FBS, 1× penicillin/streptomycin and 500 ug/mL G418 (present in U87MG cells only). They are harvested by trypsin and seeded into 96 well white bottom plates at a density of 5000 cell/well in 100 ul/well in DMEM with 10% FBS. […] Cells are incubated overnight at 37° C. in 5% CO2. The next day test compounds are made up at 2× the final concentration and 100 ul are added to each cell well. The final concentration of DMSO is 0.2% and the DMSO control wells are plated in row G. The plates are then placed in the incubator for 48 hours. […] The cell plate is placed back in the incubator for another 24 hours. At 72 hours post compound addition, 10 mL/plate of Promega Cell Titer Glo reagent is thawed and mixed. The cell plate is removed from the incubator and allowed to equilibrate to room temperature. Then 100 ul of Promega Cell Titer Glo reagent is added to each well of media. The cell plate is then placed on an orbital shaker for 10 minutes and then allowed to sit at room temperature for 20 minutes. The plate is then read for luminescence with an integration time of 500 ms.

SMILES | IC50 [nM]
Cc1ccc(N2C(=O)CC[C@H]2C(=O)N(c2cccc(F)c2)[C@H](C(=O)NC2CC(F)(F)C2)c2ccccc2Cl)nc1 [Compound 21] | 100 to 500
N#Cc1ccnc(N2C(=O)OC[C@H]2C(=O)N(c2cccc(F)c2)[C@H](C(=O)NC2CC(F)(F)C2)c2ccccc2Cl)c1 [Compound 77, (S)—N—((S)-1-(2-Chlorophenyl)-2-(3,3-difluorocyclobutylamino)-2-oxoethyl)-3-(4-cyanopyri-din-2-yl)-N-(3-fluorophenyl)-2-oxooxazolidine-4-carboxamide] | < 100
N#Cc1ccnc(N2C(=O)OC[C@H]2C(=O)N(c2cncc(F)c2)[C@H](C(=O)NC2CC(F)(F)C2)c2ccccc2Cl)c1 [Compound 135, (S)—N—((S)-1-(2-Chlorophenyl)-2-((3,3-difluorocyclobutyl)amino)-2-oxoethyl)-3-(4-cyanopyri-din-2-yl)-N-(5-fluoropyridin-3-yl)-2-oxooxazolidine-4-carboxamide] | < 100
N#Cc1cccc(N(C(=O)[C@@H]2C[C@@H](O)C(=O)N2c2cc(C#N)ccn2)C(C(=O)NC2CC(F)(F)C2)c2ccccc2Cl)c1 (stereo partly drawn) [Compound 170, (2S,4R)—N-(1-(2-chlorophenyl)-2-((3,3-difluorocyclobutyl)amino)-2-oxoethyl)-N-(3-cyano-phenyl)-1-(4-cyanopyridin-2-yl)-4-hydroxy-5-oxopyrrolidine-2-carboxamide] | < 100
N#Cc1ccnc(N2C(=O)OCC[C@H]2C(=O)N(c2cncc(F)c2)[C@H](C(=O)NC2CCC(F)(F)CC2)c2ccccc2Cl)c1 [Compound 137, (S)—N—((S)-1-(2-Chlorophenyl)-2-((4,4-difluorocyclohexyl)amino)-2-oxoethyl)-3-(4-cyano-pyridin-2-yl)-N-(5-fluoropyridin-3-yl)-2-oxo-1,3-oxazinane-4-carboxamide] | < 100
O=C(NC1CC(F)(F)C1)[C@H](c1ccccc1Cl)N(C(=O)[C@@H]1CCC(=O)N1c1nccs1)c1cccc(F)c1 [Compound 14] | 100 to 500
N#Cc1ccnc(N2C(=O)[C@@H](O)C[C@H]2C(=O)N(c2cc(F)cc(F)c2)[C@H](C(=O)NC2CCC(F)(F)CC2)c2ccccc2Cl)c1 [Compound 174, (2S,4S)—N—((S)-1-(2-Chlorophenyl)-2-((4,4-difluorocyclohexyl)amino)-2-oxoethyl)-1-(4-cyanopyridin-2-yl)-N-(3,5-difluorophenyl)-4-hydroxy-5-oxopyrrolidine-2-carboxamide] | < 100
O=C(NC1CC(F)(F)C1)[C@H](c1ccccc1Cl)N(C(=O)[C@@H]1CCC(=O)N1c1cc(Cl)ccn1)c1cccc(F)c1 [Compound 33] | 100 to 500
N#Cc1ccnc(N2C(=O)[C@H](O)C[C@H]2C(=O)N(c2cccc(F)c2)[C@H](C(=O)NC2CCC(F)(F)CC2)c2ccccc2Cl)n1 [Compound 123, (2S,4R)—N—((S)-1-(2-Chlorophenyl)-2-((4,4-difluorocyclohexyl)amino)-2-oxoethyl)-1-(4-cyanopyrimidin-2-yl)-N-(3-fluorophenyl)-4-hydroxy-5-oxopyrrolidine-2-carboxamide] | < 100
N#Cc1ccnc(N2C(=O)N(CCO)C[C@H]2C(=O)N(c2cccc(F)c2)C(C(=O)NC2CC(F)(F)C2)c2ccccc2Cl)c1 (stereo partly drawn) [Compound 112, (4S)—N-(1-(2-Chlorophenyl)-2-(3,3-difluorocyclobutyl-amino)-2-oxoethyl)-3-(4-cyanopyridin-2-yl)-N-(3-fluorophenyl)-1-(2-hydroxyeth-yl)-2-oxoimidazolidine-4-carboxamide] | < 100
N#Cc1ccnc(N2C(=O)CC[C@H]2C(=O)N(c2cccc(OC(F)(F)F)c2)C(C(=O)NC2CC(F)(F)C2)c2ccccc2Cl)n1 (stereo partly drawn) [Compound 180, (2S)—N-(1-(2-Chlorophenyl)-2-((3,3-difluorocyclobutyl)amino)-2-oxoethyl)-1-(4-cyanopyrimidin-2-yl)-5-oxo-N-(3-(trifluoromethoxy)phenyl)pyrrolidine-2-carboxamide] | < 100
N#Cc1ccnc(N2C(=O)[C@H](O)C[C@H]2C(=O)N(c2cc(F)cc(F)c2)[C@H](C(=O)NC2CCC(F)(F)CC2)c2ccccc2Cl)n1 [Compound 127, (2S,4R)—N—((S)-1-(2-Chlorophenyl)-2-(4,4-difluorocyclohexylamino)-2-oxoethyl)-1-(4-cyanopyrimidin-2-yl)-N-(3,5-difluorophenyl)-4-hydroxy-5-oxopyrrolidine-2-carboxamide] | < 100
C[S@+]([O-])c1cc(F)cc(N(C(=O)[C@@H]2CCC(=O)N2c2cc(C#N)ccn2)[C@H](C(=O)NC2CC(F)(F)C2)c2ccccc2Cl)c1 [Compound 190, (S)—N—((S)-1-(2-Chlorophenyl)-2-(3,3-difluorocyclobutylamino)-2-oxoethyl)-1-(4-cyanopyridin-2-yl)-N-(3-fluoro-5-((S)-methylsulfinyl)phenyl)-5-oxopyrrolidine-2-carboxamide] | < 100
O=C(NC1CC(F)(F)C1)[C@H](c1ccccc1Cl)N(C(=O)[C@@H]1CCC(=O)N1c1cnccn1)c1cccc(F)c1 [Compound 18] | < 100

The next lines start with the values.

IC50 [nM] | SMILES
< 100 | N#Cc1ccnc(N2C(=O)CC[C@H]2C(=O)N(c2cccc(CCO)c2)[C@H](C(=O)NC2CC(F)(F)C2)c2ccccc2Cl)c1 [Compound 160, (S)—N—((S)-1-(2-Chlorophenyl)-2-((3,3-difluorocyclobutyl)amino)-2-oxoethyl)-1-(4-cyanopyri-din-2-yl)-N-(3-(2-hydroxyethyl)phenyl)-5-oxopyrrolidine-2-carboxamide]
< 100 | N#Cc1ccnc(N2C(=O)CCC[C@H]2C(=O)N(c2cccc(F)c2)[C@H](C(=O)NC2CC(F)(F)C2)c2ccccc2Cl)c1 [Compound 55, (S)—N—((S)-1-(2-Chlorophenyl)-2-(3,3-difluorocyclobutylamino)-2-oxoethyl)-1-(4-cyanopyri-din-2-yl)-N-(3-fluorophenyl)-6-oxopiperidine-2-carboxamide]
< 100 | N#Cc1ccnc(N2C(=O)CC[C@H]2C(=O)N(c2cccc(-c3cn[nH]c3)c2)[C@H](C(=O)NC2CC(F)(F)C2)c2ccccc2Cl)c1 (single isomer, unassigned) [Compound 200]
< 100 | N#Cc1ccnc(N2C(=O)CC[C@H]2C(=O)N(c2cccc(F)c2)[C@H](C(=O)NC2CC(F)(F)C2)c2ccccc2Cl)c1F [Compound 82, (S)—N—((S)-1-(2-Chlorophenyl)-2-((3,3-difluorocyclobutyl)amino)-2-oxoethyl)-1-(4-cyano-3-fluoropyridin-2-yl)-N-(3-fluorophenyl)-5-oxopyrrolidine-2-carboxamide]
< 100 | N#Cc1ccnc(N2C(=O)CC[C@H]2C(=O)N(c2cccc3[nH]ncc23)C(C(=O)NC2CC(F)(F)C2)c2ccccc2Cl)c1 (stereo partly drawn) [Compound 152, (2S)—N-(1-(2-Chlorophenyl)-2-((3,3-difluorocyclobutyl)amino)-2-oxoethyl)-1-(4-cyanopyridin-2-yl)-N-(1H-indazol-4-yl)-5-oxopyrrolidine-2-carboxamide]
< 100 | N#Cc1ccnc(N2C(=O)CC[C@H]2C(=O)N(c2cncc(F)c2)C(C(=O)NC2CC(F)(F)C2)c2ccccc2Cl)c1 (some centres unmarked) [Compound 91]
< 100 | N#Cc1ccnc(N2C(=O)CCC[C@H]2C(=O)N(c2cccc(F)c2)[C@H](C(=O)NC2CCC(F)(F)CC2)c2ccccc2Cl)c1 [Compound 75, (S)—N—((S)-1-(2-Chlorophenyl)-2-((4,4-difluorocyclohexyl)amino)-2-oxoethyl)-1-(4-cyano-pyridin-2-yl)-N-(3-fluorophenyl)-6-oxopiperidine-2-carboxamide]
< 100 | N#Cc1cc(C#N)cc(N(C(=O)[C@@H]2CCC(=O)N2c2cc(C#N)ccn2)C(C(=O)NC2CC(F)(F)C2)c2ccccc2Cl)c1 (stereo partly drawn) [Compound 191, (2S)—N-(1-(2-Chlorophenyl)-2-((3,3-difluorocyclobutyl)amino)-2-oxoethyl)-1-(4-cyanopyridin-2-yl)-N-(3,5-dicyanophenyl)-5-oxopyrrolidine-2-carboxamide]
< 100 | N#Cc1ccnc(N2C(=O)CC[C@H]2C(=O)N(c2ccc3[nH]ccc3c2)[C@H](C(=O)NC2CC(F)(F)C2)c2ccccc2Cl)c1 [Compound 206, (S)—N—((S)-1-(2-Chlorophenyl)-2-((3,3-difluorocyclobutyl)amino)-2-oxoethyl)-1-(4-cyanopyridin-2-yl)-N-(1H-indol-5-yl)-5-oxopyrrolidine-2-carboxamide]
< 100 | O=C(NC1CC(F)(F)C1)[C@H](c1ccccc1Cl)N(C(=O)[C@@H]1CCC(=O)N1c1ncccn1)c1cc(F)cc(F)c1 [Compound 70, (S)—N—((S)-1-(2-Chlorophenyl)-2-((3,3-difluorocyclobutyl)amino)-2-oxoethyl)-N-(3,5-difluoro-phenyl)-5-oxo-1-(pyrimidin-2-yl)pyrrolidine-2-carboxamide]
< 100 | N#Cc1ccnc(N2C(=O)CC[C@H]2C(=O)N(c2cc(F)cc(F)c2)C(C(=O)NC2CC(F)(F)C2)c2cccc(Cl)c2Cl)c1 (stereo partly drawn) [Compound 195, (2S)-1-(4-Cyanopyridin-2-yl)-N-(1-(2,3-dichlorophenyl)-2-(3,3-difluoro-cyclobutylamino)-2-oxoethyl)-N-(3,5-difluorophenyl)-5-oxopyrrolidine-2-carboxamide]
< 100 | C[C@]1(O)C[C@@H](C(=O)N(c2cccc(F)c2)[C@H](C(=O)NC2CC(F)(F)C2)c2ccccc2Cl)N(c2cc(C#N)ccn2)C1=O (stereo in doubt) [Compound 183, (2S)—N—((R)-1-(2-chlorophenyl)-2-(3,3-difluorocyclobutylamino)-2-oxoethyl)-1-(4-cyanopyridin-2-yl)-N-(3-fluorophenyl)-4-hydroxy-4-methyl-5-oxopyrrolidine-2-carboxamide]
